Source: ChEMBL document CHEMBL5357078, “Synthesis and Structural Optimization of ATG4B Inhibitors for the Attenuation of Autophagy in Glioblastoma” (ACS Med Chem Lett, 2024)
Activity calls are given as the source filed them.

Legend:
Assay type in all cases: functional, cell-based
[1] = test system: GSC83; assay: Induction of autophagy in human GSC83 cells assessed as inhibition of ATG4B-induced LC3-1 to LC3-2 conversion incubated for 72 hrs by immunoblotting analysis
[2] = test system: GSC576; assay: Induction of autophagy in human GSC576 cells assessed as inhibition of sphere formation upto 10 uM incubated for 7 days; settings: time 7.0 day
[3] = test system: GSC576; assay: Induction of autophagy in human GSC576 cells assessed as inhibition of ATG4B-induced LC3-1 to LC3-2 conversion incubated for 72 hrs by immunoblotting analysis
[4] = test system: GSC83; assay: Induction of autophagy in human GSC83 cells assessed as degradation of p62/SQSTM1 substrate incubated for 72 hrs by immunoblotting analysis
[5] = test system: GSC576; assay: Antiproliferative activity against human GSC576 cells assessed as reduction in cell viability upto 100 uM incubated for 72 hrs by celltiter glo luminescent assay
[6] = test system: GSC83; assay: Antiproliferative activity against human GSC83 cells assessed as reduction in cell viability upto 100 uM incubated for 72 hrs by celltiter glo luminescent assay
[7] = test system: GSC576; assay: Induction of autophagy in human GSC576 cells assessed as degradation of p62/SQSTM1 substrate incubated for 72 hrs by immunoblotting analysis
[8] = test system: GSC83; assay: Induction of autophagy in human GSC83 cells assessed as inhibition of sphere formation upto 10 uM incubated for 7 days; settings: time 7.0 day
[9] = test system: GSC576; assay: Induction of autophagy in human GSC576 cells assessed as inhibition of sphere formation upto 100 uM incubated for 7 days; settings: time 7.0 day
[10] = test system: GSC83; assay: Induction of autophagy in human GSC83 cells assessed as inhibition of sphere formation upto 100 uM incubated for 7 days; settings: time 7.0 day

Measured: Activity

S=C(Nc1ccccn1)c1ccc2ccccc2n1
not listed: [9] | [10]
active: all other assays above

S=C(Nc1ccccn1)c1ccccn1
active: [1] | [9] | [3] | [4] | [7] | [10]
